Measured values as given in article PMC11225352, “A multicenter, randomized, double-blind, placebo-controlled ascending dose study to evaluate the safety, tolerability, pharmacokinetics (PK) and pharmacodynamic (PD) effects of Posiphen in subjects with early Alzheimer’s Disease” (Alzheimer's Research & Therapy, 2024).
Marks after values point to notes of the source that are not given here.

Key:
[1] = CSF pharmacokinetics of Posiphen and its N1 and N8 metabolites (lumbar catheter sampling, LC-MS); type: in vivo, human; conditions: for mean levels averaged over 24 h of CSF sampling: after 21–23 days, early AD
Source text: (§1) For the confinement visit, subjects arrived in the early morning after an overnight fast. Physical and neurological examination, vital signs, and assessment of compliance were completed and blood was drawn for safety laboratory tests. An intravenous line and a second line for repeated blood draw were placed. To sample CSF, the intrathecal space was accessed using a Perifix 18G Touhy Epidural Needle (90 mm), and a Polyamide Epidural Catheter (20G Closed Tip) was inserted and fixed in place by an Anesthesiologist. Participants received the last day’s dosing of study drug or placebo. Initial blood and CSF samples were drawn, intravenous infusion of ^13C6-leucine was started and continued for 9 h, during which time subjects received a low leucine diet. Blood and CSF were sampled every 2 h for 36 h. After 36 h, intravenous lines and the CSF catheter were removed, vital signs were measured, physical exam performed, and blood and CSF were sent for routine laboratory studies. […] If postural headache was present, a blood patch was performed. Once stable, participants underwent a brief exam and vital sign check and were discharged. They received a phone call 24 h after discharge to check on their wellbeing.
(§2) For biochemical analysis to derive data for SILK, ^13C6-leucine was analyzed in plasma and CSF by mass spectrometry, and Aβ peptides in CSF were analyzed by immunoprecipitation-mass spectrometry (IP-MS) as previously described, by C2N Diagnostics (St Louis, MO). CSF levels of sAPPα, sAPPβ, Aβ38, 40 and 42 were analyzed by the ADCS Biomarker Core using Mesoscale Discovery (MSD) electrochemiluminescent assays (Mesoscale Discovery, Rockville, MD). Levels of Posiphen and its N1 and N8 metabolites in plasma and CSF were measured by Charles River Laboratories (Montreal, CA) by high-performance liquid chromatographic mass spectrometry, with use of deuterated Posiphen (procured by Charles River Laboratories) as an internal standard.
(§3) A prespecified Statistical Analysis Plan (SAP) was prepared and finalized before the database lock occurred. For safety and tolerability, frequencies of adverse events, serious adverse events and laboratory abnormalities between the participants across the three groups are compared, using Pearson’s χ [2] or ANOVA, as appropriate. Plasma concentration-time data are analyzed by non-compartmental methods using WinNonlin version 6.2.1 or greater. Calculations are based on the actual sampling times recorded during the study. For PK analysis, only the subjects receiving Posiphen are included.
(§4) Noncompartmental pharmacokinetic parameters were estimated using Phoenix WinNonlin v8.3 (Certara, Princeton, NJ). Levels and parameters (Cmax, AUC) of posiphen, n-1 and n-8 metabolites were highly correlated in plasma and CSF. For the BID and TID doses the expected post dose plasma peaks appeared attenuated.

[2] = Plasma pharmacokinetics of Posiphen and its N1 and N8 metabolites (LC-MS, non-compartmental); type: in vivo, human; conditions: for AUC0 − 24 in plasma, dose proportionality: between once daily and twice daily dosing; for mean levels averaged over 24 h of CSF sampling / AUC0 − 24 / Cmax / Tmax: plasma; for mean levels averaged over 24 h of CSF sampling: after 21–23 days, early AD
Source text: as §1, §2, §3, §4

[3] = test system: Aβ; parameters: method as in PMID 24828079; conditions: mice and cognitively normal humans (aged 18–50), single dose of 60 mg; cited from earlier work
[4] = 60 mg BID (n = 5), geometric mean (% geometric CV)
[5] = 60 mg BID (n = 5), median (min-max)
[6] = 60 mg daily (n = 4; N1: only one participant measurable), geometric mean (% geometric CV)
[7] = 60 mg daily (n = 4; N1: only one participant measurable), median (min-max)
[8] = 60 mg daily (n = 4), geometric mean (% geometric CV)
[9] = 60 mg daily (n = 4), median (min-max)

## CN1c2ccc(OC(=O)Nc3ccccc3)cc2[C@]2(C)CCN[C@H]12 [N1]
[1]; 60 mg (n = 5)
  mean levels averaged over 24 h of CSF sampling: 0.02 ± 0.04 ng/mL
[1]; 60 mg BID (n = 5)
  mean levels averaged over 24 h of CSF sampling: 0.28 ± 0.30 ng/mL
[1]; [4]
  AUC0 − 24: 8.75 (83.50) hr*ng/mL
  Cmax: 0.90 (31.32) ng/mL
[1]; [5]
  Tmax: 12 (4–20) hr
[1]; 60 mg TID (n = 1)
  mean levels averaged over 24 h of CSF sampling: 0.00 ng/mL
[1]; [6]
  AUC0 − 24: 1.33* hr*ng/mL
  Cmax: 0.66* ng/mL
[1]; [7]
  Tmax: 4* hr
[2]
  AUC0 − 24 in plasma, dose proportionality: increased approximately proportionally
[2]; 60 mg BID (n = 5)
  mean levels averaged over 24 h of CSF sampling: 3.02 ± 1.40 ng/mL
[2]; [4]
  AUC0 − 24: 65.06 (58.61) hr*ng/mL
  Cmax: 6.96 (32.01) ng/mL
[2]; [5]
  Tmax: 12 (2–20) hr
[2]; 60 mg TID (n = 1)
  AUC0 − 24: 60.18 ng·h/mL
  Cmax: 5.48 ng/mL
  Tmax: 2 h
  mean levels averaged over 24 h of CSF sampling: 2.51 ng/mL
[2]; [8]
  AUC0 − 24: 36.60 (19.24) hr*ng/mL
  Cmax: 5.43 (21.98) ng/mL
[2]; [9]
  Tmax: 2 (2–4) hr
[2]; 60 mg once daily (n = 5)
  mean levels averaged over 24 h of CSF sampling: 1.29 ± 0.77 ng/mL

## CN1CC[C@]2(C)c3cc(OC(=O)Nc4ccccc4)ccc3NC12 (stereo partly drawn) [N8]
[1]; 60 mg (n = 5)
  mean levels averaged over 24 h of CSF sampling: 0.35 ± 0.26 ng/mL
[1]; 60 mg BID (n = 5)
  mean levels averaged over 24 h of CSF sampling: 0.77 ± 0.43 ng/mL
[1]; [4]
  AUC0 − 24: 17.88 (58.47) hr*ng/mL
  Cmax: 1.41 (39.33) ng/mL
[1]; [5]
  Tmax: 12 (4–20) hr
[1]; 60 mg TID (n = 1)
  AUC0 − 24: 6.26 ng·h/mL
  Cmax: 0.62 ng/mL
  Tmax: 12 h
  mean levels averaged over 24 h of CSF sampling: 0.15 ng/mL
[1]; [6]
  AUC0 − 24: 8.91 (47.91) hr*ng/mL
  Cmax: 1.01 (14.14) ng/mL
[1]; [7]
  Tmax: 4 (2–8) hr
[2]
  AUC0 − 24 in plasma, dose proportionality: increased approximately proportionally
[2]; 60 mg BID (n = 5)
  mean levels averaged over 24 h of CSF sampling: 5.04 ± 1.80 ng/mL
[2]; [4]
  AUC0 − 24: 113.65 (44.01) hr*ng/mL
  Cmax: 10.01 (27.79) ng/mL
[2]; [5]
  Tmax: 12 (2–20) hr
[2]; 60 mg TID (n = 1)
  AUC0 − 24: 80.40 ng·h/mL
  Cmax: 5.41 ng/mL
  Tmax: 2 h
  mean levels averaged over 24 h of CSF sampling: 3.35 ng/mL
[2]; [8]
  AUC0 − 24: 66.02 (20.83) hr*ng/mL
  Cmax: 6.81 (25.10) ng/mL
[2]; [9]
  Tmax: 3 (3–4) hr
[2]; 60 mg once daily (n = 5)
  mean levels averaged over 24 h of CSF sampling: 2.25 ± 1.36 ng/mL

## CN(C)CCCC1(c2ccc(F)cc2)OCc2cc(C#N)ccc21 (stereo not drawn) [citalopram]
[3]
  Aβ production (SILK): decreased
